# Laboratory results as given in patent US20250304535A1, “KAT6 Inhibitors” (BeiGene Switzerland GmbH, priority 2024, published 2025).
# Experiments:
# [1] = molecular target: Recombinant human KAT6B protein (657-1069) (Homo sapiens (Human), UniProt Q8WYB5); experiment: KAT6B biochemical TR-FRET assay; details: histone H4 peptide 1000 nM, AcCoA 100 nM, enzyme 5 nM
# Procedure: Enzymatic reactions of KAT6A and KAT6B were performed using Fluorescence Resonance Energy Transfer (TR-FRET) assay, which measures acetylation of a synthetic, biotinylated histone-H4 peptide by the KAT6A and KAT6B enzymes. Recombinant human KAT6A protein (497-780) were expressed in BL21 cell using an E. coli expression system. Recombinant human KAT6B protein (657-1069) was expressed in sf9 cell using a baculovirus expression system. Histone H4 peptide (SEQ ID NO: 1—[…]-GGK-Biotin), which was used as substrate, was synthesized by GL Biochem, Shanghai, China. Acetyl coenzyme A was purchased from Sigma-Aldrich (#A-2056).
# (§1) Testing for the inhibition activities of various compounds disclosed herein was carried out at room temperature in assay buffer containing 100 mM Tris/HCl Ph7.8, 15 mM NaCl, 0.01% chicken egg white albumin, 1 mM DTT and 0.01% Tween-20. Compounds in DMSO were dispensed into wells of a black, 384-well plate (Corning 4514) using ECHO555 (Beckman). The final concentration ranges of the test compounds were 0.0625-1,000 nM, 0.625-10,000 nM, or 0.313-5,000 nM. Five μL of KAT6A or KAT6B enzyme solution were added to wells, and the plate was incubated for 1 hour at room temperature (rt). After incubation for 1 hour at rt, 5 μL H4 and AcCoA substrate solutions were added to the wells to initiate reaction, and the plate was incubated. After 2 hours reaction, 5 μL detection reagent were added to the wells, and the plate was incubated for 2 hours. After two hours incubation, detection reagent containing 5 nM Anti-histone H4 antibody (ABCAM #ab177790), 100 μM formic acid (sigma #06473-100ML), 0.1 test/μL streptavidin-XL665 (PerkinElmer #610SAXLG), 0.05 test/μL PAb anti-rabbit IgG-Eu (PerkinElmer μ61PARKLA) was added to the wells. TR-FRET was measured on a microplate reader (PHERAstar FSX, BMG labtech). The IC50s were calculated based on inhibition of enzyme activity in the presence of increasing concentrations of test compounds, and the results are shown in Table 6. In Table 6, I≤5 nM, 5 nM<II≤50 nM.
# [2] = tested on: histone H3K23 acetylation in U-2 OS cells; experiment: Histone H3 lysine 23 acetylation assay in U-2 OS cells (high content analysis); assay type: cell-based; details: Homo sapiens, U2OS, 24 hrs exposure, H3K23ac level
# Procedure: Assay B: Histone H3 lysine 23 Acetylation Assay
# Compounds were tested for their capacity to suppress the histone H3K23 acetylation in the following high content analysis assay.
# The cell line U-2 OS (ATCC HTB-96) was seeded at a density of 2000 cells per well in black 384 well cell culture/imaging microplates in 45 μl McCoy's 5A medium with […]. After overnight incubation in 37° C., 5% CO2 incubator, cells were then treated with a 9-point dilution series of compounds and a blank control group with medium containing 0.1% DMSO.
# Following a 24 hrs exposure to the compounds, the cells were fixed with 4% immunohistochemical fixative for 20 mins at room temperature, washed with DPBS with 2% fetal bovine serum, and permed with Perm Buffer III for 30 min on ice, washed with DPBS with 2% fetal bovine serum. Then the cells were blocked with Odyssey blocking buffer containing 0.1% Tween 20. 20 ul Anti-Histone H3 (acetyl K23) antibody (Abcam, ab177275) in odyssey blocking buffer containing 0.1% Tween20 was added and incubated overnight at 4° C. After incubation, the cells were washed for 3 times and a secondary antibody Anti-rabbit IgG (H+L), F(ab′)2 Fragment (Alexa Fluor® 647 Conjugate) (CST, 4414S) were added into cells for one hour. The cells were washed and 1 ug/ml DAPI (Thermo, 62248) were added for 10 min. Then cells were washed and read on the PerkinElmer Operetta CLS high content analysis system. The nuclei were identified by DAPI and H3K23ac level was calculated from the Alexa Fluor 647 intensity in the nuclei. Inhibition rate of H3K23ac was calculated as the mean intensity of cells per well relative to blank controls on the same plate.
# [3] = molecular target: Recombinant human KAT6A protein (497-780) (Homo sapiens (Human), UniProt Q92794); experiment: KAT6A biochemical TR-FRET assay; details: histone H4 peptide 2000 nM, AcCoA 300 nM, enzyme 5 nM
# Procedure: Enzymatic reactions of KAT6A and KAT6B were performed using Fluorescence Resonance Energy Transfer (TR-FRET) assay, which measures acetylation of a synthetic, biotinylated histone-H4 peptide by the KAT6A and KAT6B enzymes. Recombinant human KAT6A protein (497-780) were expressed in BL21 cell using an E. coli expression system. Recombinant human KAT6B protein (657-1069) was expressed in sf9 cell using a baculovirus expression system. […] Acetyl coenzyme A was purchased from Sigma-Aldrich (#A-2056).
# as §1, with “The IC50s were calculated based on inhibition of enzyme activity in the presence of increasing concentrations of test compounds, and the results are shown in Table 6.” left out
# Recombinant human KAT6A protein (497-780), sequence (Q92794 497-780): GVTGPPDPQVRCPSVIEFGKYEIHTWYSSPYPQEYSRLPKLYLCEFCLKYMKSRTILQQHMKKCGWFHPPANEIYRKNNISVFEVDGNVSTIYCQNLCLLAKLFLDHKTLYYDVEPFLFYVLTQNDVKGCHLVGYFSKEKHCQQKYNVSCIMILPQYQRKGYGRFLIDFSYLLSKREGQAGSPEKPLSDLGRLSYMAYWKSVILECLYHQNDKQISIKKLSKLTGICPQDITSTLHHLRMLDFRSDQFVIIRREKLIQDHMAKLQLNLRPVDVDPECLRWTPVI
# Recombinant human KAT6B protein (657-1069), sequence (Q8WYB5 657-1069): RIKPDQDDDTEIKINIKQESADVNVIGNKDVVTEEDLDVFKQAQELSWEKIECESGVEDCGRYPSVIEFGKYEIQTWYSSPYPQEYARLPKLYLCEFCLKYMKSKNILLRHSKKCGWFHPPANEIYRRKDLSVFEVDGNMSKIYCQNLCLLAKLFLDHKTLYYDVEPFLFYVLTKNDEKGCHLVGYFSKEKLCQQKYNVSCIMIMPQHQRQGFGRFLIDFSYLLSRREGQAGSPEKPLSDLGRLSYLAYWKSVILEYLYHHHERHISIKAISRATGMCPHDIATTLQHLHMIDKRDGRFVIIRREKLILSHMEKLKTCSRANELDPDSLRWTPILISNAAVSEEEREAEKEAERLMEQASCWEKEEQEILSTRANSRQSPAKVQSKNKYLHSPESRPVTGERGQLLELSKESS
SMILES,IC50 [1] [nM],IC50 [2] [nM],IC50 [3] [nM]
"COc1ccc(C(C)(C)C)cc1S(=O)(=O)NC(=O)c1ccc(Cn2cccn2)c(-c2ccco2)c1 [Example C5, 4-((1H-pyrazol-1-yl)methyl)-N-((5-(tert-butyl)-2-methoxyphenyl)sulfonyl)-3-(furan-2-yl)benzamide]",≤ 5,≤ 10,≤ 5
"COc1ccc(C(C)(C)C)cc1S(=O)(=O)NC(=O)c1ccc(Cn2cccn2)c(C2CC2)n1 [Example C8, 5-((1H-pyrazol-1-yl)methyl)-N-((5-(tert-butyl)-2-methoxyphenyl)sulfonyl)-6-cyclopropyl-picolinamide]",≤ 5,≤ 10,≤ 5
"COc1ccc(C(C)(C)C)cc1S(=O)(=O)NC(=O)c1cc(Br)c(Cn2cccn2)cc1F [Example C10, 4-((1H-pyrazol-1-yl)methyl)-5-bromo-N-((5-(tert-butyl)-2-methoxyphenyl)sulfonyl)-2-fluorobenzamide]",≤ 5,≤ 10,≤ 5
"COc1ccc(C(C)(C)C)cc1S(=O)(=O)NC(=O)c1ccc(Cn2cccn2)c(Br)c1F [Example C11, 4-((1H-pyrazol-1-yl)methyl)-3-bromo-N-((5-(tert-butyl)-2-methoxyphenyl)sulfonyl)-2-fluorobenzamide]",≤ 5,≤ 10,≤ 5
"COCc1cc(C(=O)NS(=O)(=O)c2cc(C(C)(C)C)ccc2OC)ccc1Cn1cccn1 [Example C12, 4-((1H-pyrazol-1-yl)methyl)-N-((5-(tert-butyl)-2-methoxyphenyl)sulfonyl)-3-(methoxymethyl)benzamide]",5 to 50,10 to 100,5 to 50
"C=Cc1cc(C(=O)NS(=O)(=O)c2nc(C(C)(C)C)ccc2OC)ccc1Cn1cccn1 [Example C16, 4-((1H-pyrazol-1-yl)methyl)-N-((6-(tert-butyl)-3-methoxypyridin-2-yl)sulfonyl)-3-vinylbenzamide]",≤ 5,≤ 10,≤ 5
"COc1ccc(N2CCC(OC)CC2)cc1S(=O)(=O)NC(=O)c1ccc(Cn2cccn2)c(C2CC2)c1 [Example C17, 4-((1H-pyrazol-1-yl)methyl)-3-cyclopropyl-N-((2-methoxy-5-(4-methoxypiperidin-1-yl)phenyl)sulfonyl)benzamide]",≤ 5,10 to 100,≤ 5
"COc1cccc(OC)c1S(=O)(=O)NC(=O)c1ccc(Cn2cccn2)c(OC)n1 [Example C69, 5-((1H-pyrazol-1-yl)methyl)-N-((2,6-dimethoxyphenyl)sulfonyl)-6-methoxy-picolinamide]",≤ 5,≤ 10,

# The remaining lines, values ahead:
IC50 [1] [nM],IC50 [2] [nM],IC50 [3] [nM],SMILES
≤ 5,≤ 10,≤ 5,"COc1ccc(C(C)(C)C)cc1S(=O)(=O)NC(=O)c1ccc(Cn2cccn2)c(I)c1 [Example C1, 4-((1H-pyrazol-1-yl)methyl)-N-((5-(tert-butyl)-2-methoxyphenyl)sulfonyl)-3-iodobenzamide]"
≤ 5,≤ 10,≤ 5,"COc1ccc(C(C)(C)C)cc1S(=O)(=O)NC(=O)c1ccc(Cn2cccn2)c(C2CC2)c1 [Example C2, 4-((1H-pyrazol-1-yl)methyl)-N-((5-(tert-butyl)-2-methoxyphenyl)sulfonyl)-3-cyclopropylbenzamide]"
≤ 5,≤ 10,≤ 5,"COc1ccc(C(C)(C)C)cc1S(=O)(=O)NC(=O)c1ccc(Cn2cccn2)c(C)c1 [Example C3, 4-((1H-pyrazol-1-yl)methyl)-N-((5-(tert-butyl)-2-methoxyphenyl)sulfonyl)-3-methylbenzamide]"
≤ 5,≤ 10,≤ 5,"C=Cc1cc(C(=O)NS(=O)(=O)c2cc(C(C)(C)C)ccc2OC)ccc1Cn1cccn1 [Example C4, 4-((1H-pyrazol-1-yl)methyl)-N-((5-(tert-butyl)-2-methoxyphenyl)sulfonyl)-3-vinylbenzamide]"
≤ 5,≤ 10,≤ 5,"CCc1cc(C(=O)NS(=O)(=O)c2cc(C(C)(C)C)ccc2OC)ccc1Cn1cccn1 [Example C6, 4-((1H-pyrazol-1-yl)methyl)-N-((5-(tert-butyl)-2-methoxyphenyl)sulfonyl)-3-ethylbenzamide]"
≤ 5,≤ 10,≤ 5,"COc1cc(C(=O)NS(=O)(=O)c2cc(C(C)(C)C)ccc2OC)ccc1Cn1cccn1 [Example C7, 4-((1H-pyrazol-1-yl)methyl)-N-((5-(tert-butyl)-2-methoxyphenyl)sulfonyl)-3-methoxybenzamide]"
5 to 50,10 to 100,5 to 50,"C#Cc1cc(C(=O)NS(=O)(=O)c2cc3c(cc2OC)CCC3)ccc1Cn1cccn1 [Example C9, 4-((1H-pyrazol-1-yl)methyl)-3-ethynyl-N-((6-methoxy-2,3-dihydro-1H-inden-5-yl)sulfonyl)benzamide]"
≤ 5,≤ 10,≤ 5,"COc1ccc(C(C)(C)C)cc1S(=O)(=O)NC(=O)c1ccc(Cn2cccn2)c(N(C)C)c1 [Example C13, 4-((1H-pyrazol-1-yl)methyl)-N-((5-(tert-butyl)-2-methoxyphenyl)sulfonyl)-3-(dimethylamino)benzamide]"
≤ 5,≤ 10,≤ 5,"COc1ccc(C(C)(C)C)cc1S(=O)(=O)NC(=O)c1ccc(Cn2cccn2)c(Br)c1 [Example C14, 4-((1H-pyrazol-1-yl)methyl)-3-bromo-N-((5-(tert-butyl)-2-methoxyphenyl)sulfonyl)benzamide]"
≤ 5,≤ 10,≤ 5,"C#Cc1cc(C(=O)NS(=O)(=O)c2cc(C(C)(C)C)ccc2OC)ccc1Cn1cccn1 [Example C15, 4-((1H-pyrazol-1-yl)methyl)-N-((5-(tert-butyl)-2-methoxyphenyl)sulfonyl)-3-ethynylbenzamide]"
